Data as given in patent US4178450A, “2,5-Dimethyl-benzo(b) thiene (3,2-f) morphan and precursor thereof” (priority 1977, dated 1979).

What was measured:
I.C.R. Swiss albino mice [1] = assay: Chemical analgesia, acetic acid writhing technique; type: in vivo; settings: for No. of writhes: 30 min before acetic acid, noted 20 min after, x ± S.E.M.; for analgesic activity compared with dextropropoxyphene (in words): acetic acid writhing, i.p.
Protocol: 2. Chemical analgesia The analgesic effect has been studied in I.C.R. Swiss albino mice, employing the acetic acid writhing technique. Batches of 10 mice were made.
The products studied were administered intraperitoneally, and after 30 minutes the mice were injected intraperitoneally with 0.25 ml of 1% acetic acid. A batch of control animals received only the acetic acid. Note was made of the number of writhes in each mouse 20 minutes following injection of the acetic acid.

I.C.R. Swiss albino mice [2] = assay: Thermal analgesia, 55° C. "hot plate" technique; type: in vivo; settings: for Jumping time: 30 min before 55° C. hot plate, x ± S.E.M.; for thermal analgesic activity (in words): hot plate, i.p.
Protocol: The thermal analgesic effect has been studied in I.C.R. Swiss albino mice. The 55° C. "hot plate" technique was used. Batches of 10 mice were made. The products in study were administered intraperitoneally and after 30 minutes the mice were placed on the hot plate and note was made, in seconds, of the time it took them to jump. Batches were made of control animals injected only with distilled water.

[3] = Acute toxicity (LD50, Litchfield-Wilcoxon test, intraperitoneal); parameters: species or system I.C.R. Swiss albino mice; settings: mouse, in vivo, ip, mice, deaths noted 48 hours after treatment
Protocol: A--ACUTE TOXICITY Acute toxicity studies have been made in I.C.R. Swiss albino mice of both sexes of a weight of 30±2 g, kept without food for 24 hours prior to the experiment. Ambient temperature and relative humidity were held constant. The products were administered intraperitoneally, with the number of deaths noted 48 hours from the moment of treatment. Calculation of the lethal dose 50 (LD50) was made by the Litchfield-Wilcoxon test.

[4] = 25 mg/kg i.p., control 109.9 ± 6.362
[5] = 30 mg/kg i.p., control 122.1 ± 9.15
[6] = 25 mg/kg i.p., control 30.9 ± 5.016
[7] = 50 mg/kg i.p., control 48.8 ± 5.033

## CCC(=O)O[C@](Cc1ccccc1)(c1ccccc1)[C@H](C)CN(C)C [Dextropropoxyphene, dextropropoxyphene, reference compound]
I.C.R. Swiss albino mice [1]; [4]
  No. of writhes: 27.8 ± 8.365
I.C.R. Swiss albino mice [1]; [5]
  No. of writhes: 24 ± 6.03
I.C.R. Swiss albino mice [2]; [6]
  Jumping time: 70.8 ± 13.592 s
I.C.R. Swiss albino mice [2]; [7]
  Jumping time: 91.3 ± 7.894 s

## CN1CCC2(C)CC1Cc1sc3ccccc3c12 (racemic) [Product I, 2,5-dimethyl-benzo[b]thiene[3,2-f]morphan]
I.C.R. Swiss albino mice [1]; [5]
  No. of writhes: 44.3 ± 6.14
I.C.R. Swiss albino mice [1]
  analgesic activity compared with dextropropoxyphene (in words): has analgesic activity, but of lesser intensity than that of dextropropoxyphene
I.C.R. Swiss albino mice [2]; [6]
  Jumping time: 48.9 ± 8.956 s
I.C.R. Swiss albino mice [2]
  thermal analgesic activity (in words): lacks any thermal analgesic activity
[3]
  LD50 at 48 h: 90.8 mg/kg

## CC1=CCN(C)C(Cc2cc3ccccc3s2)C1 (centres unmarked) [Product II, 2-(2-benzo[b]thienylmethyl)-1,4-dimethyl-1,2,3,6-tetrahydropyridine]
I.C.R. Swiss albino mice [1]; [4]
  No. of writhes: 41.2 ± 6.024
I.C.R. Swiss albino mice [1]
  analgesic activity compared with dextropropoxyphene (in words): not significantly different from that of dextropropoxyphene
I.C.R. Swiss albino mice [2]; [7]
  Jumping time: 63 ± 8.368 s
I.C.R. Swiss albino mice [2]
  thermal analgesic activity (in words): lacks any thermal analgesic activity
[3]
  LD50 at 48 h: 916 mg/kg
